Literature values in PMC6804253, “Predicting and Experimentally Validating Hot-Spot Residues at Protein–Protein Interfaces” (ACS Chemical Biology, 2019).
Like-named read-outs stand apart in the source and are kept apart here.

B1: 1KTZ IB125A (protein, UniProt P37173 23-166, looked up, variant I125A)
extracellular domain: TIPPHVQKSVNNDMIVTDNNGAVKFPQLCKFCDVRFSTCDNQKSCMSNCSITSICEKPQEVCVAVWRKNDENITLETVCHDPKLPYHDFILEDAASPKCIMKEKKKPGETFFMCSCSSDECNDNAIFSEEYNTSNPDLLLVIFQ
modifications: extracellular domain

Test system: PPIs of the SKEMPI data set (by PDBID)
Settings: ref SKEMPI, cited from earlier work; for sk_class (class of SKEMPI experimental ΔΔG): class by ΔΔG threshold 4.184 kJ/mol; for sk_ddG_kJ (SKEMPI experimental ΔΔG, mutation to alanine) / sk_ddG_kJ / sk_ddG_kJ (SKEMPI experimental ΔΔG): single mutation to alanine; for sk_ddG_kJ (SKEMPI experimental ΔΔG, mutation to alanine): residue group in r_group; for sk_ddG_kJ: SKEMPI experimental ΔΔG of binding; for sk_class: class of the SKEMPI experimental ΔΔG
[1] = complex given by PDBID, residue group SQNT
[2] = sheet sortedByGroup, r_group FAMILYVW

Row | Molecule | sk_ddG_kJ (PPI given by PDBID) [kJ] | sk_class | further results
1 | 1A22 PA48A | – | – | sk_class (class of SKEMPI experimental ΔΔG): Neutral (neutral (little effect) 4.184 kJ/mol < ΔΔG > −4.184 kJ/mol); sk_ddG_kJ (SKEMPI experimental ΔΔG, mutation to alanine) (complex given by PDBID): 1.67 kJ
2 | 1A22 PA59A | – | – | sk_class (class of SKEMPI experimental ΔΔG): Neutral (neutral (little effect) 4.184 kJ/mol < ΔΔG > −4.184 kJ/mol); sk_ddG_kJ (SKEMPI experimental ΔΔG, mutation to alanine) (complex given by PDBID): 1.59 kJ
3 | 1A22 PA61A | – | – | sk_class (class of SKEMPI experimental ΔΔG): Positive (positive (a hot residue) ΔΔG ≥ 4.184 kJ/mol); sk_ddG_kJ (SKEMPI experimental ΔΔG, mutation to alanine) (complex given by PDBID): 5.02 kJ
4 | 1DQJ DC101A | – | – | sk_ddG_kJ (complex by PDBID): 6.07 kJ
5 | 1DQJ KC96A | – | – | sk_ddG_kJ (complex by PDBID): 25.77 kJ
6 | 1DQJ KC97A | – | – | sk_ddG_kJ (complex by PDBID): 14.73 kJ
7 | 1DQJ LC75A | – | – | sk_ddG_kJ (SKEMPI experimental ΔΔG) (PPI given by PDBID, sheet sortedByGroup, r_group FAMILYVW): 6.07 kJ
8 | 1DQJ RC21A | – | – | sk_ddG_kJ (complex by PDBID): 4.90 kJ
9 | 1DQJ SC100A | – | – | sk_ddG_kJ (SKEMPI experimental ΔΔG) [1]: 3.26 kJ
10 | 1DQJ TC89A | – | – | sk_ddG_kJ (SKEMPI experimental ΔΔG) [1]: 3.51 kJ
11 | 1DQJ WC62A | – | – | sk_ddG_kJ (SKEMPI experimental ΔΔG) [2]: 3.18 kJ
12 | 1DQJ WC63A | – | – | sk_ddG_kJ (SKEMPI experimental ΔΔG) [2]: 5.65 kJ
13 | 1DQJ YC20A | – | – | sk_ddG_kJ (SKEMPI experimental ΔΔG) [2]: 13.77 kJ
14 | 1GC1 NC30A | 0.71 | Neutral (neutral (little effect) 4.184 kJ/mol < ΔΔG > −4.184 kJ/mol) | –
15 | 1GC1 NC32A | 0.75 | Neutral (neutral (little effect) 4.184 kJ/mol < ΔΔG > −4.184 kJ/mol) | –
16 | 1GC1 NC73A | -0.46 | Neutral (neutral (little effect) 4.184 kJ/mol < ΔΔG > −4.184 kJ/mol) | –

Row | Molecule | sk_ddG_kJ (PPI given by PDBID) [kJ] | sk_class | further results
17 | 1GC1 QC20A | -0.08 | Neutral (neutral (little effect) 4.184 kJ/mol < ΔΔG > −4.184 kJ/mol) | –
18 | 1GC1 QC33A | 0.46 | Neutral (neutral (little effect) 4.184 kJ/mol < ΔΔG > −4.184 kJ/mol) | –
19 | 1GC1 QC40A | -1.72 | Neutral (neutral (little effect) 4.184 kJ/mol < ΔΔG > −4.184 kJ/mol) | –
20 | 1GC1 QC64A | 1.84 | Neutral (neutral (little effect) 4.184 kJ/mol < ΔΔG > −4.184 kJ/mol) | –
21 | 1GC1 QC94A | -0.46 | Neutral (neutral (little effect) 4.184 kJ/mol < ΔΔG > −4.184 kJ/mol) | –
22 | 1GC1 SC23A | 1.21 | Neutral (neutral (little effect) 4.184 kJ/mol < ΔΔG > −4.184 kJ/mol) | –
23 | 1GC1 SC31A | 0.46 | Neutral (neutral (little effect) 4.184 kJ/mol < ΔΔG > −4.184 kJ/mol) | –
24 | 1GC1 SC60A | -0.38 | Neutral (neutral (little effect) 4.184 kJ/mol < ΔΔG > −4.184 kJ/mol) | –
25 | 1GC1 TC15A | 1.34 | Neutral (neutral (little effect) 4.184 kJ/mol < ΔΔG > −4.184 kJ/mol) | –
26 | 1GC1 TC17A | -0.54 | Neutral (neutral (little effect) 4.184 kJ/mol < ΔΔG > −4.184 kJ/mol) | –
27 | 1VFB IC124A | – | – | sk_class (class of SKEMPI experimental ΔΔG): Positive (positive (a hot residue) ΔΔG ≥ 4.184 kJ/mol)
28 | 1VFB LC129A | – | – | sk_class (class of SKEMPI experimental ΔΔG): Neutral (neutral (little effect) 4.184 kJ/mol < ΔΔG > −4.184 kJ/mol)
29 | 1VFB SC24A | 3.56 | Neutral (neutral (little effect) 4.184 kJ/mol < ΔΔG > −4.184 kJ/mol) | –
30 | 1VFB VC120A | – | – | sk_class (class of SKEMPI experimental ΔΔG): Neutral (neutral (little effect) 4.184 kJ/mol < ΔΔG > −4.184 kJ/mol)
31 | 1VFB YC23A | – | – | sk_class (class of SKEMPI experimental ΔΔG): Neutral (neutral (little effect) 4.184 kJ/mol < ΔΔG > −4.184 kJ/mol)
32 | B1 | – | – | sk_class (class of SKEMPI experimental ΔΔG): Neutral (neutral (little effect) 4.184 kJ/mol < ΔΔG > −4.184 kJ/mol); sk_ddG_kJ (SKEMPI experimental ΔΔG, mutation to alanine) (complex given by PDBID): 2.26 kJ
